Our source for the IC50 values is patent EP2913333A1 (priority 2014, dated 2015).

Molecules are shown by their SMILES. Structures can show the parent of a compound that is named as a salt.

The target of one assay is T1, E. feacium DltA (Enterococcus faecium, UniProt Q3XZT7).
T1 sequence (Q3XZT7 1-504): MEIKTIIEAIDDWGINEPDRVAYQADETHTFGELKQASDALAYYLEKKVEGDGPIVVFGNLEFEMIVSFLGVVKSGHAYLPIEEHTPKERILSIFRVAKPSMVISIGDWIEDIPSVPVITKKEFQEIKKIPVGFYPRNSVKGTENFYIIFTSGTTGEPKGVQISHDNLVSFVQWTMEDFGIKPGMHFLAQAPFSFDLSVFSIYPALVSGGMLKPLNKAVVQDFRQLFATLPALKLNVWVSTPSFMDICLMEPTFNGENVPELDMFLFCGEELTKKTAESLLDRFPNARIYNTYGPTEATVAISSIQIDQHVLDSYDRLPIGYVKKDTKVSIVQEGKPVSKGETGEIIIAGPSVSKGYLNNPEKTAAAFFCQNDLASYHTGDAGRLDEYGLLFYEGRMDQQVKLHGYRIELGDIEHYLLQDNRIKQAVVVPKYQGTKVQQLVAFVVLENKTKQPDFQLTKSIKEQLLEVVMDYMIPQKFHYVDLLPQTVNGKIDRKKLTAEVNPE
Put plainly: in vitro DltA activity assay (luminescence, IC50 determination). It counts as biochemical. The note with it: recombinant DltA, 30min preincubation at room temperature, 0.5mM D-Alanine, 0.5-5µM ATP; read-out: E. feacium DltA IC50. As to the method: (§1) The effect of the compounds of the invention on DltA enzymes has been based on the measure of their inhibition of DltA activity in vitro. To this end, recombinant proteins DltA were expressed and purified after cloning of the genes of S. aureus, E. faecalis, E. faecium and S. agalactiae as described thereafter. The capacity of the compounds of the invention to inhibit DltA enzymatic activity was assessed using the DltA assays as described below: • The dltA gene was amplified from chromosomal DNA of S. aureus, E. faecalis, E. faecium and S. agalactiae and introduced into E. coli BL21 (Invitrogen, Carlsbad, CA) following manufacturer's instruction. Bacteria were grown at 37°C under aerobic conditions and isopropyl-beta-D-thiogalactopyranoside (IPTG) was added to 0.5-1 mM when OD600 of the bacterial culture had reached 0.5. After a further incubation for 3 hours, cells were harvested by centrifugation. Purification of the recombinant DltA protein was performed by affinity chromatography on nickel-nitrilotriacetic acid (Ni-NTA) column following manufacturer's instructions (Qiagen). Fractions containing recombinant DltA protein were adjusted to 50% glycerol and stored at -20°C until use.
(§2) The binding potency of the inhibitors against DltA enzyme was assessed by IC50 determination in an in vitro DltA activity assay. The assay buffer "AB" contained 50 mM Hepes pH8.0, 10mM MgCl2, 50mM KCI, 0.012% Triton-X100, 10mM DTT and 100nM Myelin-basic protein. The following components were added in a white polystyrene Costar plate up to a final volume of 30µL: 3µL DMSO, or inhibitor dissolved in DMSO and 27µL DltA enzyme in AB. After 30min of preincubation at room temperature, 30µL of Substrates mix in AB were added in each well to a final volume of 60µL. This reaction mixture was then composed of DltA (produced in house from S. aureus, E. faecalis, E. faecium and S. agalactiae), 0.5mM D-Alanine (Sigma), 0.5-5µM ATP (Sigma) and 0.05 u/ml inorganic pyrophosphatase (Sigma) in assay buffer. After typically 1-2hours of incubation at room temperature (conversion rate around 30%), 30µL of the revelation mix were added to a final volume of 90µL, including the following constituents at the respective final concentrations: 10000 u/ml luciferase (Sigma), 30µM D-luciferin (Sigma), 100µM N-acetylcysteamine (Aldrich). Luminescence intensity was immediately measured on a Fluostar Optima (BMG) (excitation 360nm, emission 520nm) and converted into inhibition percentages.
(§3) For compounds interfering with the luminescent signal (quenching), the same experiment without DltA enzyme was performed to allow quenching determination and correction.

Another assay concerns the target T2, S. aureus DltA (Staphylococcus aureus, UniProt Q2FZW6).
T2 construct: made in house; host or cells: E. coli BL21
T2 sequence (Q2FZW6 1-485): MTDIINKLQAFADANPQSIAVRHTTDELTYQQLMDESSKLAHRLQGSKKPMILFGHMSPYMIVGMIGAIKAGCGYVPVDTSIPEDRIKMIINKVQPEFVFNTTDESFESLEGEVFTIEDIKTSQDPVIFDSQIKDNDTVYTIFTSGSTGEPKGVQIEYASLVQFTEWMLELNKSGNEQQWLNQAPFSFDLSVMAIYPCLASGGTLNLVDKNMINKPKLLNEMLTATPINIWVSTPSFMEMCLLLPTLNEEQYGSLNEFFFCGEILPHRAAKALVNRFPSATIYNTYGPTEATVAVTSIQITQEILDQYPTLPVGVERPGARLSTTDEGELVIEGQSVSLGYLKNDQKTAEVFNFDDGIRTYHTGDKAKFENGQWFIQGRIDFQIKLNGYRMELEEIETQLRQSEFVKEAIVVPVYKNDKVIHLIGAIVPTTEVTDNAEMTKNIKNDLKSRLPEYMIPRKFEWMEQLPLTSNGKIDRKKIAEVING
Described as above. Type of assay: biochemical. As to the method:
as §1, §2, §3

Another assay concerns the target T3, E. feacalis DltA (Enterococcus faecalis, UniProt Q830N0).
T3 sequence (Q830N0 1-506): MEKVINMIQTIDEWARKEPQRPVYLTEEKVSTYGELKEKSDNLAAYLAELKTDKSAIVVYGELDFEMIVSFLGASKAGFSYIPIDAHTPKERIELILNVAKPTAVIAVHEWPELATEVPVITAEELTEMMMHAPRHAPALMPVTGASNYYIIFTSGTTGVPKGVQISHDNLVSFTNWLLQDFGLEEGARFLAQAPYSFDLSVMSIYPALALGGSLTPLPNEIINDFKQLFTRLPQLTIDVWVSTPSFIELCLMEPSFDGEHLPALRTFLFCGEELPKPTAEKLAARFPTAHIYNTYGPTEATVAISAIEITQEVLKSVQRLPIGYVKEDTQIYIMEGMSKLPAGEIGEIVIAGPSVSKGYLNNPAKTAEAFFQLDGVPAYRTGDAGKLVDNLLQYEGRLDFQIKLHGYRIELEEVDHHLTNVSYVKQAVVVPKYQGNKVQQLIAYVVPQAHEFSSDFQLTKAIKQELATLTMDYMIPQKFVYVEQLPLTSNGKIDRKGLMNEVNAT
The assay can be described thus: biochemical. As to the method:
as §1, with “To” for “The effect of the compounds of the invention on DltA enzymes has been based on the measure of their inhibition of DltA activity in vitro. To”
as §2, §3

The target of another assay is T4, S. Agalactiae DltA (Streptococcus agalactiae serotype III, UniProt Q8VM67).
T4 sequence (Q8VM67 1-511): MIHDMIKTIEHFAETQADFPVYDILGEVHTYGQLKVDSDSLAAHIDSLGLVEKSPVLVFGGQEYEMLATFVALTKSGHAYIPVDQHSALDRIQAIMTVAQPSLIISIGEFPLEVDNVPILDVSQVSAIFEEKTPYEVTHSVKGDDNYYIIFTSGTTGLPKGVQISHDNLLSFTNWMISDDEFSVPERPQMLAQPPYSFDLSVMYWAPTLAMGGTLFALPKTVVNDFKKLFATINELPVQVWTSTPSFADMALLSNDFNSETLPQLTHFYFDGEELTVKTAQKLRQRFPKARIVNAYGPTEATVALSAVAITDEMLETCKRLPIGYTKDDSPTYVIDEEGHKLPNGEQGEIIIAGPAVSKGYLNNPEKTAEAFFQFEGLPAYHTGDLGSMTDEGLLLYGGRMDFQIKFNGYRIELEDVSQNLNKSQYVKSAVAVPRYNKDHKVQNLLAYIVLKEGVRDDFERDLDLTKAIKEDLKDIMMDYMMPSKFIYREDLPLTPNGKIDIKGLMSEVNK
The assay can be described thus: biochemical. As to the method:
as §1, with “To” for “The effect of the compounds of the invention on DltA enzymes has been based on the measure of their inhibition of DltA activity in vitro. To”
as §2, §3

In the case of `O=c1[nH]cnc2c(-c3ccc4c(c3)ncn4C3CCCCC3)sc(N3CCNCC3)c12` [Example 28, 7-(1-cyclohexyl-1H-benzoimidazol-5-yl)-5-piperazin-1-yl-3H-thieno[3,4-d]pyrimidin-4-one hydrochloride], the concentration for half-maximal inhibition (IC50) – broadly, the concentration needed to halve the response being measured – stood at 0.16 µM on E. feacium DltA, 0.15 µM against S. aureus DltA, 0.048 µM against E. feacalis DltA and 1.2 µM against S. Agalactiae DltA.
For `O=c1[nH]cnc2c(-c3ccc4c(c3)ncn4C3CCCCC3)cn([C@H]3CCCNC3)c12` [Example 76, 7-(1-Cyclohexyl-1H-benzimidazol-5-yl)-5-(S)-piperidin-3-yl-3,5-dihydro-pyrrolo[3,2-d]pyrimidin-4-one] the same measures were 0.46 µM, 0.067 µM, 0.069 µM and 1.2 µM.
For `O=c1[nH]cnc2c(-c3ccc4c(c3)ncn4C3CCCCC3)cn(C3CCCC(O)C3)c12` (racemic) [Example 70A, 7-(1-Cyclohexyl-1H-benzimidazol-5-yl)-5-(3-hydroxy-cyclohexyl)-3,5-dihydro-pyrrolo[3,2-d]pyrimidin-4-one] the same measures were 0.92 µM, 0.66 µM, 0.57 µM and 2.4 µM.
On the same counts, the results for `CC(C)N1CCC(n2cc(-c3ccc4c(c3)ncn4C3CCCCC3)c3nc[nH]c(=O)c32)CC1` [Example 82, 7-(1-Cyclohexyl-1H-benzimidazol-5-yl)-5-(1-isopropyl-piperidin-4-yl)-3,5-dihydro-pyrrolo[3,2-d]pyrimidin-4-one] are 0.38 µM, 0.056 µM, 0.1 µM and 1.9 µM.
For the molecule `O=c1[nH]cnc2c(-c3ccc4c(c3)ncn4C3CCCCC3)cn(C3CCNC3)c12` (stereo not drawn) [Example 77, 7-(1-Cyclohexyl-1H-benzimidazol-5-yl)-5-pyrrolidin-3-yl-3,5-dihydro-pyrrolo[3,2-d]pyrimidin-4-one], the IC50 stood at 0.51 µM at E. feacium DltA, 0.093 µM against S. aureus DltA, 0.13 µM at E. feacalis DltA and 1.6 µM against S. Agalactiae DltA.
In the case of `O=c1[nH]cnc2c(-c3ccc4c(c3)ncn4C3CCCOC3)sc(N3CC[C@H](CO)C3)c12` (stereo partly drawn) [Example 49, 5-((S)-3-hydroxymethyl-pyrrolidin-1-yl)-7-[1-(tetrahydro-pyran-3-yl)-1-H-benzoimidazol-5-yl]-3H-thieno[3,4-d]pyrimidin-4-one], the IC50 turned out to be 0.16 µM on E. feacium DltA, 0.097 µM against S. aureus DltA, 0.082 µM against E. feacalis DltA and 3.3 µM on S. Agalactiae DltA.
For `O=c1[nH]cnc2c(-c3ccc4c(c3)ncn4C3CCCCC3)sc(N3CC4C(O)C4C3)c12` (stereo not drawn) [Example 17, 7-(1-Cyclohexyl-1H-benzoimidazol-5-yl)-5-(6-hydroxy-3-aza-bicyclo[3.1.0]hex-3-yl)-3H-thieno[3,4-d]pyrimidin-4-one], the IC50 at E. feacium DltA amounted to 0.19 µM; against S. aureus DltA, 0.22 µM; on E. feacalis DltA it was 0.085 µM; at S. Agalactiae DltA it was 2.2 µM.
For `O=c1[nH]cnc2c(-c3ccc4c(c3)ncn4C3CCCCC3)cn([C@H]3CC[C@@H](CO)CC3)c12` [Example 74, 7-(1-Cyclohexyl-1H-benzimidazol-5-yl)-5-[cis-(4-hydroxymethyl-cyclohexyl)]-3,5-dihydro-pyrrolo[3,2-d]pyrimidin-4-one] the same measures were 0.14 µM, 0.15 µM, 0.093 µM and 1.1 µM.
On the same counts, the results for `CCn1cnc2cc(-c3sc(N4CC[C@H](CO)C4)c4c(=O)[nH]cnc34)ccc21` [Example 45, 7-(1-ethyl-1H-benzoimidazol-5-yl)-5-((S)-3-hydroxymethyl-pyrrolidin-1-yl)-3H-thieno[3,4-d]pyrimidin-4-one] are 0.39 µM, 0.13 µM, 0.07 µM and 3.4 µM.
On the same counts, the results for `O=c1[nH]cnc2c(-c3ccc4c(c3)ncn4C3CCCCC3)sc(N3CC[C@H](CO)C3)c12` [Example 7, 7-(1-Cyclohexyl-1H-benzoimidazol-5-yl)-5-((S)-3-hydroxymethyl-pyrrolidin-1-yl)-3H-thieno[3,4-d]pyrimidin-4-one] are 0.12 µM, 0.07 µM, 0.037 µM and 3.2 µM.
Turning to `CC1CCCC(n2cnc3cc(-c4sc(N5CC[C@H](CO)C5)c5c(=O)[nH]cnc45)ccc32)C1` (stereo partly drawn) [Example 48], the IC50 on E. feacium DltA came out at 0.11 µM; at S. aureus DltA, 0.068 µM.
